This note sets out measurements from ChEMBL document CHEMBL4411303, “Synthesis of tetrazole derivatives bearing pyrrolidine scaffold and evaluation of their antifungal activity against Candida albicans” (Eur J Med Chem, 2019).

Series [1] in a line: Toxicity in Galleria mellonella larvae assessed as cocoon formation at 47.9 uM measured after 48 hrs (reference value: 85 +/- 5%).
Series [2] in a line: Toxicity in Galleria mellonella larvae assessed as movement melanization at 47.9 uM measured after 18 hrs (reference value: 0%).
Series [3] relates to Candida albicans. The experiment in a line: Antifungal activity against Candida albicans ATCC 90028 assessed as planktonic growth inhibition at 3 uM after 48 hrs by M27-A3 protocol based method relative to control. The class given is functional. The conditions noted are these: ATCC 90028, 48 h, read-out: GI.
Series [4] can be described thus: Selectivity index, ratio of CC50 for African green monkey Vero cells to IC50 for Candida albicans ATCC 90028. The format is toxicity. Particulars: read-out: Ratio CC50/IC50.
The subject of series [5] is Candida albicans. The series can be described thus: Antifungal activity against Candida albicans ATCC 90028 assessed as planktonic growth inhibition at 12 uM after 48 hrs by M27-A3 protocol based method relative to control. The class given is functional. Particulars: ATCC 90028, 48 h, read-out: GI.
In series [6] the test system is Candida albicans. The series can be described thus: Antibiofilm activity against Candida albicans ATCC 90028 assessed as inhibition of biofilm formation […] after 24 hrs by XTT assay relative to control. The class given is functional, organism-based. Particulars: ATCC 90028, 24 h. In general terms: Tetrazolium dyes change colour on reduction, which living cells bring about.

Series [7] relates to Candida albicans. The series can be described thus: Antifungal activity against Candida albicans ATCC 90028 assessed as reduction in cell growth after 48 to 72 hrs in presence of ergosterol by M27-A3 protocol based method. The format is functional.
Series [8] is described as follows: Toxicity in Galleria mellonella larvae assessed as cocoon formation at 47.9 uM measured after 48 hrs (reference value: 100 +/- 0%).
Series [9] has as its system Vero. The series can be described thus: Cytotoxicity against African green monkey Vero cells assessed as reduction in cell viability at 383.2 uM after 18 hrs by XTT assay relative to control. The format is cell-based. The conditions noted are these: chlorocebus sabaeus.
A short description of series [10]: Toxicity in Galleria mellonella larvae assessed as movement melanization at 47.9 uM measured after 128 hrs (reference value: 0%).
A short description of series [11]: Toxicity in Galleria mellonella larvae assessed as survival rate at 47.9 uM measured after 18 hrs (reference value: 100%).
The subject of series [12] is Candida albicans. The experiment in a line: Antifungal activity against Candida albicans ATCC 90028 assessed as planktonic growth inhibition at 0.7 uM after 48 hrs by M27-A3 protocol based method relative to control. The class given is functional. The conditions noted are these: ATCC 90028, 48 h, read-out: GI.
Series [13] relates to Candida albicans. The experiment in a line: Induction of Candida albicans ATCC 90028 internalization in mouse RAW264.7 cells assessed as reduction in fungus-induced cell damage by measuring live and early apoptotic cells at 47.9 uM after 2 hrs acridine orange/ethidium bromide staining based confocal scanning microscopic analysis. The format is functional, organism-based.
Series [14] has as its system Candida albicans. The experiment in a line: Antifungal activity against Candida albicans ATCC 90028 assessed as planktonic growth inhibition at 6 uM after 48 hrs by M27-A3 protocol based method relative to control. The class given is functional. Particulars: ATCC 90028, 48 h, read-out: GI.
For series [15], the system named is Candida albicans. The experiment in a line: Antifungal activity against Candida albicans ATCC 90028 assessed as planktonic growth inhibition at 47.9 uM after 48 hrs by M27-A3 protocol based method relative to control. The format is functional. Particulars: ATCC 90028, 48 h, read-out: GI.
In series [16] the test system is Candida albicans. The series can be described thus: Induction of reactive oxygen species generation in Candida albicans ATCC 90028 assessed as ROS level at 47.9 uM after 18 hrs by DCFDA probe based flow cytometry (reference value: 0.3%). The class given is functional. In general terms: In flow cytometry, cells or beads pass a laser one at a time.
In series [17] the test system is Candida albicans. The series can be described thus: Antifungal activity against Candida albicans ATCC 90028 assessed as reduction in cell growth after 48 to 72 hrs by M27-A3 protocol based method. The class given is functional.
For series [18], the system named is Candida albicans. The experiment in a line: Antifungal activity against Candida albicans ATCC 90028 assessed as planktonic growth inhibition at 23.9 uM after 48 hrs by M27-A3 protocol based method relative to control. The class given is functional. The conditions noted are these: ATCC 90028, 48 h, read-out: GI.
A short description of series [19]: Toxicity in Galleria mellonella larvae assessed as survival rate at 47.9 uM measured after 120 hrs (reference value: 100%).
Series [20] concerns Candida albicans. The experiment in a line: Antifungal activity against Candida albicans ATCC 90028 assessed as planktonic growth inhibition at 0.09 uM after 48 hrs by M27-A3 protocol based method relative to control. Particulars: ATCC 90028, 48 h, read-out: GI. The class given is functional.
Series [21] in a line: Toxicity in Galleria mellonella larvae assessed as cocoon formation at 47.9 uM measured after 18 hrs (reference value: 60 +/- 20%).
The test system of series [22] is Candida albicans. The experiment in a line: Inhibition of Candida albicans ATCC 90028 cell adhesion to human TR146 cells at reduction in cell adherence at 47.9 uM relative to control. The class given is functional. Particulars: ATCC 90028, TR146.
The nature of series [23]: Toxicity in Galleria mellonella larvae assessed as survival rate at 47.9 uM measured after 48 hrs (reference value: 100%).
In series [24] the test system is Candida albicans. The experiment in a line: Antifungal activity against Candida albicans ATCC 90028 assessed as planktonic growth inhibition at 0.4 uM after 48 hrs by M27-A3 protocol based method relative to control. The format is functional. Particulars: ATCC 90028, 48 h, read-out: GI.
Series [25] in a line: Toxicity in Galleria mellonella larvae assessed as movement melanization at 47.9 uM measured after 48 hrs (reference value: 0%).
For series [26], the system named is Candida albicans. The experiment in a line: Antifungal activity against Candida albicans ATCC 90028 assessed as planktonic growth inhibition at 0.2 uM after 48 hrs by M27-A3 protocol based method relative to control. The format is functional. The conditions noted are these: ATCC 90028, 48 h, read-out: GI.
In series [27] the test system is Candida albicans. The series can be described thus: Fungicidal activity against Candida albicans ATCC 90028 assessed as log reduction in fungal load incubated for 48 hrs followed by replating on sabouraud dextrose agar plate and measured after 48 hrs. The format is functional.
The test system of series [28] is Candida albicans. The series can be described thus: Antifungal activity against Candida albicans ATCC 90028 assessed as planktonic growth inhibition at 1.5 uM after 48 hrs by M27-A3 protocol based method relative to control. The class given is functional. Particulars: ATCC 90028, 48 h, read-out: GI.
The test system of series [29] is Candida albicans. The experiment in a line: Antifungal activity against Candida albicans ATCC 90028 assessed as planktonic growth inhibition at 4.97 uM after 48 hrs by M27-A3 protocol based method relative to control. The class given is functional. The conditions noted are these: ATCC 90028, 48 h, read-out: GI.
Series [30] has as its system Candida albicans. The experiment in a line: Antifungal activity against Candida albicans ATCC 90028 assessed as planktonic growth inhibition at 19.88 uM after 48 hrs by M27-A3 protocol based method relative to control. The class given is functional. Particulars: ATCC 90028, 48 h, read-out: GI.
Series [31] relates to Candida albicans. The series can be described thus: Antifungal activity against Candida albicans ATCC 90028 assessed as planktonic growth inhibition at 2.49 uM after 48 hrs by M27-A3 protocol based method relative to control. The format is functional. The conditions noted are these: ATCC 90028, 48 h, read-out: GI.
For series [32], the system named is Candida albicans. The series can be described thus: Antifungal activity against Candida albicans ATCC 90028 assessed as planktonic growth inhibition at 0.08 uM after 48 hrs by M27-A3 protocol based method relative to control. The format is functional. Particulars: ATCC 90028, 48 h, read-out: GI.
Series [33] has as its system Candida albicans. The experiment in a line: Antifungal activity against Candida albicans ATCC 90028 assessed as planktonic growth inhibition at 0.16 uM after 48 hrs by M27-A3 protocol based method relative to control. The format is functional. Particulars: ATCC 90028, 48 h, read-out: GI.
Series [34] concerns Candida albicans. The experiment in a line: Antifungal activity against Candida albicans ATCC 90028 assessed as planktonic growth inhibition at 39.77 uM after 48 hrs by M27-A3 protocol based method relative to control. The format is functional. The conditions noted are these: ATCC 90028, 48 h, read-out: GI.
The subject of series [35] is Candida albicans. The series can be described thus: Antifungal activity against Candida albicans ATCC 90028 assessed as planktonic growth inhibition at 0.62 uM after 48 hrs by M27-A3 protocol based method relative to control. The class given is functional. Particulars: ATCC 90028, 48 h, read-out: GI.
For series [36], the system named is Candida albicans. The series can be described thus: Antifungal activity against Candida albicans ATCC 90028 assessed as planktonic growth inhibition at 1.24 uM after 48 hrs by M27-A3 protocol based method relative to control. The class given is functional. The conditions noted are these: ATCC 90028, 48 h, read-out: GI.
Series [37] concerns Candida albicans. The series can be described thus: Antifungal activity against Candida albicans ATCC 90028 assessed as planktonic growth inhibition at 0.31 uM after 48 hrs by M27-A3 protocol based method relative to control. The format is functional. The conditions noted are these: ATCC 90028, 48 h, read-out: GI.
In series [38] the test system is Candida albicans. The series can be described thus: Induction of Candida albicans ATCC 90028 internalization in mouse RAW264.7 cells assessed as reduction in fungus-induced cell damage by measuring live and early apoptotic cells at 39.77 uM after 2 hrs acridine orange/ethidium bromide staining based confocal scanning microscopic analysis. The format is functional, organism-based.

The subject of series [39] is Vero. The experiment in a line: Cytotoxicity against African green monkey Vero cells assessed as reduction in cell viability at 318.16 uM after 18 hrs by XTT assay relative to control. The format is cell-based. The conditions noted are these: chlorocebus sabaeus.
Series [40] concerns Candida albicans. The experiment in a line: Antifungal activity against Candida albicans ATCC 90028 assessed as planktonic growth inhibition at 9.94 uM after 48 hrs by M27-A3 protocol based method relative to control. Particulars: ATCC 90028, 48 h, read-out: GI. The format is functional.

As a reminder, the IC50 is the concentration at which inhibition is half-maximal. The term MIC denotes the least concentration at which growth counts as inhibited. As usually defined, the inhibition is the change of the read-out against control, counted positive when it falls.

Values after ≈ are worked out from the molar mass of the structure shown. Active and inactive are the calls of the source. No cut-off for these calls is given here.

With `c1ccc(-c2nnn(CCCN3CCCC3c3ccccc3)n2)cc1` (stereo not drawn), the Activity in [1] was 77%; in [2] it was 0%; in [8], 93%; in [9], 100%; in series [10] it was 0%; in [16], 12 - 16%. Besides, the Activity in series [21] is 67%; in series [25] it was 0%. The inhibition of growth at 3 µM in series [3] is 99.3%. For the same compound, the selectivity ratio in series [4] amounted to 2. Besides, the inhibition of growth at 12 µM in series [5] was determined as 99.4%. The concentration for half-maximal inhibition (IC50) in series [6] amounted to 23.9 µM. The MIC worked out at 23.9 µM in series [7] and 11.9 µM (≈ 3.97 µg/mL) in [17]. Moreover, in [11], the survival at 18 h, 47.9 µM was found to be 100%. Further, the inhibition of growth at 0.7 µM in [12] stood at 99.2%. Further, the outcome in series [13] was Active. Besides, the inhibition of growth at 6 µM in series [14] was found to be 99.3%. Moreover, the inhibition of growth at 47.9 µM in series [15] amounted to 99.2%. The inhibition of growth at 23.9 µM in series [18] stood at 99.3%. The survival at 120 h, 47.9 µM in series [19] was found to be 97%. Besides, the inhibition of growth at 0.09 µM in [20] is 99.2%. For the same compound, the inhibition at 47.9 µM in series [22] is more than 95%. In addition, in series [23], the survival at 48 h, 47.9 µM was 100%. Besides, the inhibition of growth at 0.4 µM in series [24] was 99.3%. Also, the inhibition of growth at 0.2 µM in series [26] is 99.3%. Also, the “log(activity)” value in series [27] is given as -0.4. The inhibition of growth at 1.5 µM in series [28] is 99.3%.
Take `Clc1ccc(-c2nnn(CCCN3CCCC3c3ccc(Cl)cc3)n2)cc1` (stereo not drawn): the inhibition of growth at 4.97 µM in series [29] came out at 99.3%. The inhibition of growth at 19.88 µM in series [30] worked out at 99.3%. The inhibition of growth at 2.49 µM in [31] was 99.7%. Besides, in series [4], the selectivity ratio amounted to 2. Also, the IC50 in series [6] turned out to be 79.5 µM. The inhibition of growth at 0.08 µM in series [32] is 99.6%. Moreover, the inhibition of growth at 0.16 µM in series [33] turned out to be 99.5%. For the same compound, the inhibition of growth at 39.77 µM in series [34] was found to be 99.6%. Further, in series [35], the inhibition of growth at 0.62 µM stood at 99.5%. For the same compound, the inhibition of growth at 1.24 µM in series [36] was 99%. For the same compound, the inhibition of growth at 0.31 µM in series [37] is 99.2%. For the same compound, the outcome in series [38] was Active. Moreover, the Activity in series [39] was 100%. In addition, in [27], the “log(activity)” value is -1.4. Also, in [40], the inhibition of growth at 9.94 µM is 99.3%.
